According to ChEMBL document CHEMBL3425434 (J Med Chem, 2015):
Active and inactive are the calls of the source. The calls are words filed in the database; no cut-off is given here.

How the values were obtained:
[1] = target: T1, Rho-associated protein kinase 2 (Homo sapiens, UniProt O75116); assay: Inhibition of human N-terminal GST-tagged ROCK2 expressed in baculovirus-infected insect cells using long S6 kinase peptide as substrate by radiometric assay in presence of [32P]ATP and 200 uM ATP
[2] = Stability in human plasma assessed as compound remaining after 2 hrs by LC-MS/MS analysis; type: ADME, cell-free; details: read-out: Stability
[3] = Inhibition of ROCK-catalysed MLC Thr18/Ser19 phosphorylation in rat A7r5 cells after 90 mins by ELISA; type: cell-based; details: A7R5, 1.5 h
[4] = Apparent permeability across human Caco2 cells; type: ADME, cell-based; details: Caco-2
[5] = Half life in human plasma by LC-MS/MS analysis; type: ADME, cell-free
[6] = target: T1, Rho-associated protein kinase 2; assay: Inhibition of human N-terminal GST-tagged ROCK2 expressed in baculovirus-infected insect cells using long S6 kinase peptide as substrate by radiometric assay in presence of [32P]ATP
[7] = Stability in human plasma assessed as compound remaining after 60 mins by LC-MS/MS analysis in presence of 5 uM cholinesterase inhibitor tacrine; type: ADME, cell-free; details: with tacrine (cholinesterase inhibitor), read-out: Stability
[8] = Stability in human plasma assessed as compound remaining after 60 mins by LC-MS/MS analysis; type: ADME, cell-free; details: read-out: Stability
[9] = target: Rho-associated protein kinase 1 (Homo sapiens, UniProt Q13464); assay: Inhibition of human N-terminal GST-tagged ROCK1 expressed in insect cells using long S6 kinase peptide as substrate by radiometric assay in presence of [32P]ATP
[10] = Half life in human plasma by LC-MS/MS analysis in presence of 5 uM cholinesterase inhibitor tacrine; type: ADME, cell-free; details: with tacrine (cholinesterase inhibitor)
[11] = Lipophilicity, log D of the compound at pH 7.4; type: physicochemical; details: buffer
HDF-1 = assay: Induction of cell migration in human HDF-1 cells at 1 uM after 8 hrs by wound healing assay; type: functional, cell-based

Rho-associated protein kinase 1, sequence (Q13464 whole entry): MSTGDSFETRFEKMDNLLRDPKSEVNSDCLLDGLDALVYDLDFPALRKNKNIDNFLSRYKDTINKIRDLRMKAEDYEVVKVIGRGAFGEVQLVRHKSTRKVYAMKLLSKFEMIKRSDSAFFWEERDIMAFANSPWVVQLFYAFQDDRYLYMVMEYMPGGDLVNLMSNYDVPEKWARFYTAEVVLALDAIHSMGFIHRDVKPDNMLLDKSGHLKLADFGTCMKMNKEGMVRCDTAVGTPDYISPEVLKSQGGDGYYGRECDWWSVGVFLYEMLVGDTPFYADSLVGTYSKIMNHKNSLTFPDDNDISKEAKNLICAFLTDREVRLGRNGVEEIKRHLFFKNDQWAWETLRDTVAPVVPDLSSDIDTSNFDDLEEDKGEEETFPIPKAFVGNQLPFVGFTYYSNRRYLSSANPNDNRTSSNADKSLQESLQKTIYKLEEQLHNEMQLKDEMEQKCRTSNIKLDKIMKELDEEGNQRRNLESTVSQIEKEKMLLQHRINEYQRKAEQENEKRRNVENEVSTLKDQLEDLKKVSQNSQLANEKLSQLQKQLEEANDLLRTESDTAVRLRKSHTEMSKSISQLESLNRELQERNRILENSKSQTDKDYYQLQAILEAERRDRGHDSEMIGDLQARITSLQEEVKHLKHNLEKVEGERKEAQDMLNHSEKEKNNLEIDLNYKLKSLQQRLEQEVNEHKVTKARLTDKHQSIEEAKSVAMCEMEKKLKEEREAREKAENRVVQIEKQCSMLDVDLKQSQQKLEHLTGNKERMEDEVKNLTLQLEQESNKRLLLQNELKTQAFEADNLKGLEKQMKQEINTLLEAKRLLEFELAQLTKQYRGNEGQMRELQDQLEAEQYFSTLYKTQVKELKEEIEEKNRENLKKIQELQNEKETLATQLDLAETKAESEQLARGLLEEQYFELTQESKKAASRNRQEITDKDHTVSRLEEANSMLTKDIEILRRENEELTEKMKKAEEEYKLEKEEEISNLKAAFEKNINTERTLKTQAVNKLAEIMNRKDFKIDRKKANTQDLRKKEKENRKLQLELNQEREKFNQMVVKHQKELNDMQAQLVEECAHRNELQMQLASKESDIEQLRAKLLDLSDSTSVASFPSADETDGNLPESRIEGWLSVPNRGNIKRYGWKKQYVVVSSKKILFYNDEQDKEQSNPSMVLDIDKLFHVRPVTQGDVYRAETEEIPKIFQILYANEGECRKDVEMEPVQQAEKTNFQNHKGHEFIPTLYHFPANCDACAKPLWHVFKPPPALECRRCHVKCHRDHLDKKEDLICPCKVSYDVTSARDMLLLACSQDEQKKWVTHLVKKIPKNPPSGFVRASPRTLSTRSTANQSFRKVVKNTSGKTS
T1 sequence (O75116 whole entry): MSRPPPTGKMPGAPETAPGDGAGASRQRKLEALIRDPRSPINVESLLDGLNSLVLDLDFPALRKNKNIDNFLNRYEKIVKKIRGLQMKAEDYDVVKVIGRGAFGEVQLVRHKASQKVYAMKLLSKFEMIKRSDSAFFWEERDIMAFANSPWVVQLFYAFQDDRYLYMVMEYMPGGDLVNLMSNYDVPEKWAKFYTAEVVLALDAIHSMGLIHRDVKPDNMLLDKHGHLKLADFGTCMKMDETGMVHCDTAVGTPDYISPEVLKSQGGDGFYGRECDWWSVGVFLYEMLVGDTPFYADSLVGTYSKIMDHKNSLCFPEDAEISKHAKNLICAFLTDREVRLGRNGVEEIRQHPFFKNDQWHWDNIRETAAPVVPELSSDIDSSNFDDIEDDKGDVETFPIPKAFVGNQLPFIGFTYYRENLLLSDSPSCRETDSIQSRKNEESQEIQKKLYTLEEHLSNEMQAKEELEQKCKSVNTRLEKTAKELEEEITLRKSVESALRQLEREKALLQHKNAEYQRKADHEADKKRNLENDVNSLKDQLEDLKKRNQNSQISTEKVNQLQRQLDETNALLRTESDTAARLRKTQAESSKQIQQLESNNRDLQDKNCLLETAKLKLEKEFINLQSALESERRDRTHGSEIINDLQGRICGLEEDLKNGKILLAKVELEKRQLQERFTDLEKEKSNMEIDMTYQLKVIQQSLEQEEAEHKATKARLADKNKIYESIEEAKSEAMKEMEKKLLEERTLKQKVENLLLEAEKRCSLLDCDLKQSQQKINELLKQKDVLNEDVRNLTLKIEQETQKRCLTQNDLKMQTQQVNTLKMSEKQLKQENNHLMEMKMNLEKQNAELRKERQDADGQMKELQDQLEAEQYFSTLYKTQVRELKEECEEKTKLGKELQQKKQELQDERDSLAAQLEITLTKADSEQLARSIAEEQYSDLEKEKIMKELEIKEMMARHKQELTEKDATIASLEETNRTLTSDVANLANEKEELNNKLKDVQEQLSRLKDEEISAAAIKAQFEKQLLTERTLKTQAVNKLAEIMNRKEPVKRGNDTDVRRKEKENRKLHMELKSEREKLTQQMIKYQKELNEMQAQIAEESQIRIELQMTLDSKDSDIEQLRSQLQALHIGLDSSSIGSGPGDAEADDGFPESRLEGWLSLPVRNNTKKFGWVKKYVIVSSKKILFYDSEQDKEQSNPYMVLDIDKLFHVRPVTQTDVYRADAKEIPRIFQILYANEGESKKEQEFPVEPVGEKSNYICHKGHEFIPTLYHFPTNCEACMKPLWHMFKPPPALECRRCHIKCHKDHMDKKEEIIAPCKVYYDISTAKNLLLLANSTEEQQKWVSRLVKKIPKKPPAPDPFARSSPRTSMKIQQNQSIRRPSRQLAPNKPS

Row | IC50 [1] [nM] | EC50 [3] [nM] | half-life [5] [min] | IC50 [6] [nM] | Compound | further results
1 | – | 180 | < 5 | 27 | CCCCOC(=O)c1cccc(NC(=O)c2cccc(-c3cc(C(=O)Nc4ccncc4F)ccc3CN)c2)c1 | –
2 | – | > 10000 | > 120 | 3.5 | NCc1ccc(C(=O)Nc2ccncc2F)cc1-c1cccc(C(=O)Nc2cccc(C(=O)O)c2F)c1 | –
3 | – | 3600 | > 120 | 1.8 | NCc1ccc(C(=O)Nc2ccncc2F)cc1-c1cccc(C(=O)Nc2ccc(CC(=O)O)cc2)c1 | –
4 | – | 5900 | > 120 | 6.6 | NCc1ccc(C(=O)Nc2ccncc2F)cc1-c1cccc(C(=O)Nc2cccc(C(=O)O)c2)c1 | –
5 | – | 79 | 46 | 3.3 | CC[C@@H](C)OC(=O)c1ccc(F)c(NC(=O)c2cccc(-c3cc(C(=O)Nc4ccncc4F)ccc3CN)c2)c1 | –
6 | 4.6 | 330 | < 5 | < 1 | CN1CCC(OC(=O)Cc2ccc(NC(=O)c3cccc(-c4cc(C(=O)Nc5ccncc5F)ccc4CN)c3)cc2)CC1 | –
7 | 72 | 50 | 39 | 5.5 | CC[C@H](C)OC(=O)c1ccc(F)c(NC(=O)c2cccc(-c3cc(C(=O)Nc4ccncc4F)ccc3CN)c2)c1 | –
8 | 2.1 | 17 | 64 | < 1 | COC(=O)c1cccc(C(=O)Nc2cccc(-c3cc(C(=O)Nc4ccncc4F)ccc3CN)c2)c1 | –
9 | 41 | 43 | 9 | 1.4 | NCc1ccc(C(=O)Nc2ccncc2F)cc1-c1cccc(C(=O)Nc2cccc(C(=O)OC3CCCC3)c2F)c1 | –
10 | – | 77 | 16 | 2.6 | CCC(C)OC(=O)c1cccc(NC(=O)c2cccc(-c3cc(C(=O)Nc4ccncc4F)ccc3CN)c2)c1 (stereo not given) | –
11 | – | 150 | 34 | 7 | CC(C)OC(=O)c1cccc(NC(=O)c2cccc(-c3cc(C(=O)Nc4ccncc4F)ccc3CN)c2)c1 | –
12 | < 1 | 36 | 6 | < 1 | NCc1ccc(C(=O)Nc2ccncc2F)cc1-c1cccc(C(=O)Nc2ccc(CC(=O)OC3CCCOC3)cc2)c1 (stereo not given) | –
13 | – | 630 | > 120 | – | C[C@@H](N)[C@H]1CC[C@H](C(=O)Nc2ccncc2)CC1 [Y-27632] | –
14 | – | 6600 | > 120 | 3.3 | NCc1ccc(C(=O)Nc2ccncc2F)cc1-c1cccc(C(=O)Nc2ccc(C(=O)O)cc2)c1 | Papp [4]: 0.08 ×10⁻⁶ cm/s; logD [11]: 0.56; Activity (HDF-1): inactive

The next lines start with the molecule.

Row | Compound | IC50 [1] [nM] | EC50 [3] [nM] | half-life [5] [min] | IC50 [6] [nM] | further results
15 | NCc1ccc(C(=O)Nc2ccncc2F)cc1-c1cccc(C(=O)Nc2ccccc2)c1 | 31 | 22 | > 120 | < 1 | remaining at 2 h [2]: > 90%; Papp [4]: 2.3 ×10⁻⁶ cm/s
16 | NCc1ccc(C(=O)Nc2ccncc2F)cc1-c1cccc(C(=O)Nc2cc(C(=O)O)ccc2F)c1 | – | 3900 | > 120 | 2 | –
17 | NCc1ccc(C(=O)Nc2ccncc2F)cc1-c1cccc(NC(=O)c2cc(C(=O)O)ccc2F)c1 | – | 8900 | > 120 | < 1 | –
18 | COCCOC(=O)c1ccc(F)c(C(=O)Nc2cccc(-c3cc(C(=O)Nc4ccncc4F)ccc3CN)c2)c1 | 2.2 | 26 | < 5 | < 1 | remaining at 1 h [7]: 88%; remaining at 1 h [8]: 0%
19 | CCCOC(=O)c1ccc(F)c(NC(=O)c2cccc(-c3cc(C(=O)Nc4ccncc4F)ccc3CN)c2)c1 | – | 75 | < 5 | 2.1 | –
20 | NCc1ccc(C(=O)Nc2ccncc2F)cc1-c1cccc(NC(=O)c2cccc(C(=O)O)c2)c1 | – | 2000 | > 120 | < 1 | –
21 | NCc1ccc(C(=O)Nc2ccncc2F)cc1-c1cccc(C(=O)Nc2ccc(CC(=O)OC3CCOCC3)cc2)c1 | < 1 | 79 | 7 | < 1 | remaining at 1 h [7]: 82%; remaining at 1 h [8]: 0%
22 | C[C@H]1CNCCCN1S(=O)(=O)c1cccc2cncc(F)c12 | 197 | 210 | – | 3.8 | –
23 | COC(=O)c1cccc(NC(=O)c2cccc(-c3cc(C(=O)Nc4ccncc4F)ccc3CN)c2)c1 | 125 | 79 | < 5 | 1.1 | IC50 [9]: < 1 nM; half-life [10]: 53 min
24 | NCc1ccc(C(=O)Nc2ccncc2F)cc1-c1cccc(C(=O)Nc2ccc(CC(=O)OC3CCC3)cc2)c1 | 1.4 | 24 | 6 | 1.3 | –
25 | COC(=O)Cc1ccc(NC(=O)c2cccc(-c3cc(C(=O)Nc4ccncc4F)ccc3CN)c2)cc1 | 11 | 31 | < 5 | < 1 | IC50 [9]: < 1 nM; half-life [10]: 53 min
26 | COC(=O)c1ccc(C(=O)Nc2cccc(-c3cc(C(=O)Nc4ccncc4F)ccc3CN)c2)cc1 | 3.1 | 5.2 | > 120 | < 1 | –
27 | NCc1ccc(C(=O)Nc2ccncc2F)cc1-c1cccc(NC(=O)c2ccc(C(=O)O)cc2)c1 | – | 3600 | – | 1 | –
28 | COC(=O)c1cccc(NC(=O)c2cccc(-c3cc(C(=O)Nc4ccncc4F)ccc3CN)c2)c1F | 8.8 | 11 | < 5 | 1.2 | –
29 | CC[C@@H](C)OC(=O)Cc1ccc(NC(=O)c2cccc(-c3cc(C(=O)Nc4ccncc4F)ccc3CN)c2)cc1 | < 1 | 31 | > 120 | < 1 | –
30 | CCCOC(=O)c1cccc(C(=O)Nc2cccc(-c3cc(C(=O)Nc4ccncc4F)ccc3CN)c2)c1 | – | 15 | < 5 | 1.8 | –
31 | COC(=O)Cc1cccc(NC(=O)c2cccc(-c3cc(C(=O)Nc4ccncc4F)ccc3CN)c2)c1 | 144 | 220 | < 5 | 1.1 | IC50 [9]: < 1 nM
32 | CC[C@H](C)OC(=O)Cc1ccc(NC(=O)c2cccc(-c3cc(C(=O)Nc4ccncc4F)ccc3CN)c2)cc1 | < 1 | 23 | 17 | < 1 | remaining at 1 h [7]: 101%; remaining at 1 h [8]: 42%
33 | NCc1ccc(C(=O)Nc2ccncc2F)cc1-c1cccc(C(=O)OCC2CCCO2)c1 (stereo not given) | 49 | 94 | < 5 | – | –
34 | NCc1ccc(C(=O)Nc2ccncc2F)cc1-c1cccc(C(=O)Nc2cccc(CC(=O)O)c2)c1 | – | 1300 | > 120 | 1.5 | –
35 | CCCOC(=O)c1ccc(NC(=O)c2cccc(-c3cc(C(=O)Nc4ccncc4F)ccc3CN)c2)cc1 | – | 8.3 | > 120 | < 1 | –
36 | CC(C)OC(=O)Cc1ccc(NC(=O)c2cccc(-c3cc(C(=O)Nc4ccncc4F)ccc3CN)c2)cc1 | < 1 | 37 | 94 | < 1 | –
37 | COC(=O)c1ccc(F)c(C(=O)Nc2cccc(-c3cc(C(=O)Nc4ccncc4F)ccc3CN)c2)c1 | 1.4 | 6.8 | 53 | < 1 | remaining at 1 h [7]: 103%; remaining at 1 h [8]: 23%
